This experiment has as its system A. ceylanicum. Briefly: In vivo treatment in the hamster model of hookworm infection. Also on record: species or system Ancylostoma ceylanicum. To be noted: ABZ 10mg/kg once orally, hamsters, 20 DPI, vs infected controls.

`CCCSc1ccc2nc(NC(=O)OC)[nH]c2c1` [Albendazole, reference compound]: the Intestinal worm burdens result is recorded as “eliminated intestinal worm burdens”.
